From article PMC10385977, “On the Road towards Small-Molecule Programmed Cell Death 1 Ligand 1 Positron Emission Tomography Tracers: A Ligand-Based Drug Design Approach” (Pharmaceuticals, 2023)
Read-outs that look alike come from different tables or passages of the source. Blank lines part the entries; values can stand above or below the compound they belong to. Positions of bridges follow the written chain, without caps; N, C: chain ends. Non-standard residues stand in square brackets, D forms with d. Residues, ends and D or L forms follow the SMILES beside them. NMeNle = CCCC[C@H](NC)C(=O)O; NMeA = CN[C@@H](C)C(=O)O; Sar = CNCC(=O)O

Assays:
[1] = HPLC lipophilicity measurement (µHPLC logPOWpH 7.4, logD); type: physicochemical; details: HPLC on an apHera column (retention time method); pH 7.4, HPLC method, mean ± SD
Procedure: An equilibration time of 2 min before measurements was set. Solvent “A” consisted of methanol (Merck KGaA, Darmstadt, Germany) and solvent “B” of 10 mM sodium phosphate buffer pH 7.4. […] The measurements of lipophilicity of precursors and products were performed according to the HPLC method of Donovan and Pescatore and Vraka et al.. […] Three logP values of the reference substances were taken from the literature, resulting in a mean logP value of the analyte ( μHPLC logPOWpH 7.4analyte) . Furthermore, the values were compared to calculated logP (clogP) and topological polar surface area (tPSA) values from ChemDraw 20.1 (PerkinElmer, Inc., Waltham, MA, USA) as well as clogDpH7.4 values from MarvinSketch 22.13 (ChemAxon Ltd., Budapest, Hungary).

human PD-L1 [2] = target: T1, human PD-L1 (Homo sapiens, UniProt Q9NZQ7); assay: HTRF PD-1/PD-L1 Binding Assay Kit (Cisbio); details: for BEI (binding efficiency index): BEI = −logIC50/(molecular weight/1000); for LE (ligand efficiency): LE = −1.4(logIC50)/Nheavy atoms; for LELP (ligand-efficiency-dependent lipophilicity efficiency): LELP = µHPLC logPOWpH 7.4/LE; for LLE (ligand lipophilicity efficiency): LLE = −logIC50 − µHPLC logPOWpH 7.4
T1 construct: purchased Cisbio Bioassays SAS 64PD1PEG

[3] = In-solution stability in 1:1 DMSO/HEPES buffer (HPLC); details: for decomposition of the parent compound: 20 days; for remained intact: within the 20-day time period
human PD-L1 [4] = target: T1, human PD-L1; set-up: method as in doi:10.14205/2309-4435.2013.01.01.6
hPD-L1 = system: hPD-L1; set-up: method as in earlier work; details: HTRF assay; cited from earlier work
[5] = Metabolic stability in human liver microsomes; type: in vitro ADME; details: incubation for 40 min
Procedure: Metabolic stability was assessed using pooled, mixed gender human liver microsomes (HLMs) (Corning, Corning, NY, USA) according to the supplied protocol. In short, 15 µL of HLM (20 mg/mL), 15 µL of NADPH regenerating system solution A (Corning, Corning, NY, USA), 3 µL of solution B (Corning, Corning, NY, USA) and 257 µL of a 1:10 dilution of 10× PBS concentrate (MORPHISTO, Offenbach am Main, Germany) were pre-incubated at 37 °C for 10 min. Aliquots were drawn 0, 10, 20, 30 and 40 min after addition of 10 µL radiotracer, subsequently quenched with the same amount of MeCN, centrifuged for 4 min at 21,500× g and analyzed by HPLC setup 3.

T1 sequence (Q9NZQ7 19-238 limits assumed): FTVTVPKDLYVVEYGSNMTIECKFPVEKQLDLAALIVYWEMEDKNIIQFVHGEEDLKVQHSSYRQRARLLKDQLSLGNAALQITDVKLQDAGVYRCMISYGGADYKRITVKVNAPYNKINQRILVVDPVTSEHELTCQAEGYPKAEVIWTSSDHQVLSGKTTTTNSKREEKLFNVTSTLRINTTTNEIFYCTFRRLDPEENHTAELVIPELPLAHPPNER

Compound: COc1nc(OCc2cccc(-c3ccccc3)c2C)ccc1CN(CCNC(C)=O)C(=O)OCCF [Substance 2d, 2-Fluoroethyl (2-Acetamidoethyl)((2-methoxy-6-((2-methyl-[1,1′-biphenyl]-3-yl)methoxy)pyridin-3-yl)methyl)carbamate]
- chromatographic logD [1]: 4.23 ± 0.17
- BEI (binding efficiency index) (human PD-L1 [2]): 9.9
- dose-response curve in HTRF assay (human PD-L1 [2]; HTRF binding curves): No full dose response curves were observed
- LE (ligand efficiency) (human PD-L1 [2]): 0.19 kcal/mol/Heavy Atom
- LELP (ligand-efficiency-dependent lipophilicity efficiency) (human PD-L1 [2]): 22.2
- LLE (ligand lipophilicity efficiency) (human PD-L1 [2]): 0.8
- IC50 (human PD-L1 [2]; read-out: IC50 (This Work)): 9880 ± 1390 nM
- decomposition of the parent compound [3]: less than 2%

Compound: CCCC[C@H]1C(=O)N(C)[C@@H](CCCC)C(=O)N[C@@H](CCCNC(=N)N)C(=O)N[C@H](C(=O)NCC(N)=O)CSCC(=O)N[C@@H](Cc2ccccc2)C(=O)N(C)[C@@H](C)C(=O)N[C@@H](CC(N)=O)C(=O)N2CCC[C@H]2C(=O)N[C@@H](Cc2c[nH]cn2)C(=O)N[C@@H](CC(C)C)C(=O)N(C)CC(=O)N[C@@H](Cc2c[nH]c3ccccc23)C(=O)N[C@@H](CO)C(=O)N[C@@H](Cc2c[nH]c3ccccc23)C(=O)N1C [Inhibitor 3, reference compound] ({CH2CO}-F[NMeA]NPHL[Sar]WSW[NMeNle][NMeNle]RCG-NH2; thioether N-14; N-terminus and C-terminus assumed)
- IC50 (human PD-L1 [4]; read-out: IC50 (Cisbio); HTRF assay, vendor value; cited from earlier work): 146 nM
- IC50 (human PD-L1 [2]): 113 ± 45 nM

Compound: Atezolizumab: anti-PD-L1 antibody, positive control (MedChemExpress)
- IC50 (human PD-L1 [4]; HTRF assay, vendor value; read-out: IC50 (Cisbio); cited from earlier work): 3.84 nM
- IC50 (human PD-L1 [2]; HTRF PD-1/PD-L1 binding assay, mean ± SD, three experiments, read-out: IC50 (This Work)): 4.07 ± 0.42 nM

Compound: COc1nc(OCc2cccc(-c3ccccc3)c2C)ccc1CN(C)CCN(C)C(C)=O [Substance 2c, N-(2-(((2-Methoxy-6-((2-methyl-[1,1′-biphenyl]-3-yl)methoxy)pyridin-3-yl)methyl)(methyl)amino)ethyl)-N-methylacetamide]
- chromatographic logD [1]: 4.28 ± 0.18
- BEI (binding efficiency index) (human PD-L1 [2]): 13.1
- LE (ligand efficiency) (human PD-L1 [2]): 0.25 kcal/mol/Heavy Atom
- LELP (ligand-efficiency-dependent lipophilicity efficiency) (human PD-L1 [2]): 17.1
- LLE (ligand lipophilicity efficiency) (human PD-L1 [2]): 1.6
- IC50 (human PD-L1 [2]; read-out: IC50 (This Work)): 1310 ± 185 nM
- decomposition of the parent compound [3]: less than 2%

The next lines start with results.

- chromatographic logD [1]: 5.02 ± 0.28
- BEI (binding efficiency index) (human PD-L1 [2]): 11.4
- LE (ligand efficiency) (human PD-L1 [2]): 0.22 kcal/mol/Heavy Atom
- LELP (ligand-efficiency-dependent lipophilicity efficiency) (human PD-L1 [2]): 22.9
- LLE (ligand lipophilicity efficiency) (human PD-L1 [2]): 0.9
- IC50 (human PD-L1 [2]; read-out: IC50 (This Work)): 1440 ± 144 nM
- remained intact [3]: over 85%
Compound: COc1cc(OCc2cccc(-c3ccccc3)c2C)cc(OC)c1CN1CCCC[C@H]1C(=O)OCCF [Substance 1b, 2-Fluoroethyl (S)-1-(2,6-Dimethoxy-4-((2-methyl-[1,1′-biphenyl]-3-yl)methoxy)benzyl)piperidine-2-carboxylate]

- chromatographic logD [1]: 4.9 ± 0.27
- BEI (binding efficiency index) (human PD-L1 [2]): 10.7
- LE (ligand efficiency) (human PD-L1 [2]): 0.20 kcal/mol/Heavy Atom
- LELP (ligand-efficiency-dependent lipophilicity efficiency) (human PD-L1 [2]): 24.0
- LLE (ligand lipophilicity efficiency) (human PD-L1 [2]): 0.3
- IC50 (human PD-L1 [2]; read-out: IC50 (This Work)): 5760 ± 613 nM
- remained intact [3]: over 85%
Compound: COC(=O)[C@@H]1CCCCN1Cc1c(OC)cc(OCc2cccc(-c3ccccc3)c2C)cc1OC [Substance 1a, Methyl (S)-1-(2,6-Dimethoxy-4-((2-methyl-[1,1′-biphenyl]-3-yl)methoxy)benzyl)piperidine-2-carboxylate]

- chromatographic logD [1]: 4.13 ± 0.16
- BEI (binding efficiency index) (human PD-L1 [2]): 14.7
- LE (ligand efficiency) (human PD-L1 [2]): 0.28 kcal/mol/Heavy Atom
- LELP (ligand-efficiency-dependent lipophilicity efficiency) (human PD-L1 [2]): 14.8
- LLE (ligand lipophilicity efficiency) (human PD-L1 [2]): 2.2
- fold reduced affinity compared to lead structure 2 (human PD-L1 [2]; ratio of HTRF IC50 values): 4.3 fold
- IC50 (human PD-L1 [2]; read-out: IC50 (This Work)): 430 ± 62 nM
- decomposition of the parent compound [3]: less than 2%
Compound: COc1nc(OCc2cccc(-c3ccccc3)c2C)ccc1CN(C)CCNC(C)=O [Substance 2a, N-(2-(((2-Methoxy-6-((2-methyl-[1,1′-biphenyl]-3-yl)methoxy)pyridin-3-yl)methyl)(methyl)amino)ethyl)acetamide]

- chromatographic logD [1]: 3.16 ± 0.16
- remained intact [3]: over 85%
Compound: COc1cc(OCc2cccc(-c3ccccc3)c2C)cc(OC)c1CN1CCCC[C@H]1C(=O)O [Substance 1, (S)-1-(2,6-dimethoxy-4-((2-methyl-[1,1′-biphenyl]-3-yl)methoxy)benzyl)piperidine-2-carboxylic acid, reference compound]

- intact tracer [5]: ~ 90%
Compound: COc1nc(OCc2cccc(-c3ccccc3)c2C)ccc1CN([11CH3])CCNC(C)=O [[^11C]2a]

- chromatographic logD [1]: 3.97 ± 0.13
- BEI (binding efficiency index) (human PD-L1 [2]): 14.5
- LE (ligand efficiency) (human PD-L1 [2]): 0.27 kcal/mol/Heavy Atom
- LELP (ligand-efficiency-dependent lipophilicity efficiency) (human PD-L1 [2]): 14.4
- LLE (ligand lipophilicity efficiency) (human PD-L1 [2]): 2.3
- IC50 (human PD-L1 [2]; read-out: IC50 (This Work)): 524 ± 67 nM
- remained intact [3]: over 85%
Compound: COc1nc(OCc2cccc(-c3ccccc3)c2C)ccc1CNCCN(C)C(C)=O [Substance 2b, N-(2-(((2-Methoxy-6-((2-methyl-[1,1′-biphenyl]-3-yl)methoxy)pyridin-3-yl)methyl)amino)ethyl)-N-methylacetamide]

- chromatographic logD [1]: 3.88 ± 0.12
- decomposition of the parent compound [3]: less than 2%
Compound: COc1nc(OCc2cccc(-c3ccccc3)c2C)ccc1CNCCNC(C)=O [Substance 2, N-(2-(((2-methoxy-6-((2-methyl-[1,1′-biphenyl]-3-yl)methoxy)pyridin-3-yl)methyl)amino)ethyl)acetamide, reference compound]
